Structures are written as SMILES. Several values for one entry are separate records, joined by “and”; a condition that tells them apart may be missing. Identical values can stand only once. Entries after “also recorded” stand apart in the source; their conditions may differ.

These results are taken from patent US9884856B2, “Crystal form of Dabrafenib mesylate and preparation method thereof” (Hangzhou Pushai Pharmaceutical Technology Co., LTD., priority 2013, dated 2018).

In one data set the test system is BRAFV600E-mutan melanoma. The conditions noted are these: patients with BRAFV600E-mutan melanoma; cited from earlier work.
A short description of data set [1]: Storage stability of crystal forms (XRPD before and after placement). In kind it is physicochemical. The conditions noted are these: methanesulfonate. On the procedure: (§1) The stability is performed by comparing the storage stability and the stirring test in water on crystalline forms.
The storage stability is performed by placing the samples under a constant condition (i.e. under constant humidity or constant temperature) for a certain period of time, and then comparing their XRPDs before and after placement.

Data set [2] in a line: Hygroscopicity by dynamic vapor sorption (DVS). The class given is physicochemical. On the procedure: The dynamic vapor sorption analysis (DVS) data are collected by TA Instruments Q5000 TGA; the instrument control software is Thermal Advantage and the analysis software is Universal Analysis. Generally, take 1˜10 mg of the sample and place it in a platinum pan, and the weight changes of the sample are recorded during the course of the relative humidity changing from 0% to 80% and then to 0%. According to the specifics of the samples, different adsorption and desorption steps may be used.
Compare hygroscopicity in weight changes of samples between 20%-80% RH obtained by DVS tests.

Data set [3] can be described thus: Stability during wet granulation in formulation process (XRPD). In kind it is physicochemical. The conditions noted are these: methanesulfonate; for Form of API in wet granule sample (XRPD): wet granulation with 50% aqueous ethanol, lactose monohydrate, microcrystalline cellulose. From the text:
The stability of the Known Crystal Form I of Dabrafenib methanesulfonate and Crystal Form IV of the present invention during wet granulation in formulation process was studied.
Wet granulation experiments in the formulation process were parallel experiments. The specific steps are:
1) Blend API (the Known Crystal Form I or Crystal Form IV of the present invention), lactose (monohydrate) and microcrystalline cellulose uniformly.
2) Make the above mixture into soft materials by using appropriate amount of 50% aqueous ethanol solution, screen to produce wet granules.
3) Dry the wet granules and then granulate them, blend with polyethylene glycol 6000 uniformly and then compress them into tablets.
Characterize the Known Crystal Form I and Crystal Form IV of the present invention samples obtained from the formulation process of: (1) the sample obtained from physically mixing lactose monohydrate and microcrystalline cellulose at the ratios per the formulation; (2) the sample obtained from physically mixing of API, lactose monohydrate and microcrystalline cellulose at the ratios per the formulation; (3) the wet granule sample obtained from the wet granulation process (excluding the compressed tablets in Step 3). See XRPDs in FIG. 16 and FIG. 17.

Data set [4] is described as follows: Stirring test in water (XRPD comparison). In kind it is physicochemical. The conditions noted are these: methanesulfonate; for Stirring test in water: form after stirring: 10 mg in 1 mL water; for Stability in water or aqueous system(s): general statement. On the procedure:
as §1
The stirring test in water is performed by, for each crystalline form, adding an equal amount of the sample (10 mg) to an equal amount of water (1 mL) to form a suspension, stirring the suspensions for a certain time at room temperature, and then comparing their XRPDs.

A short description of data set [5]: Dissolution profile in ultrapure water (HPLC). In kind it is physicochemical. The conditions noted are these: for Dissolution: ultrapure water. On the procedure: The analysis data of high performance liquid chromatography (HPLC) are collected by Agilent 1260 with the chemical working station of B.04. The corresponding HPLC parameters in this research are: chromatographic column SB-C18 250×4.6 mm 5 μm; column temperature 35° C.; flow rate 0.6 mL/min; flow phase as shown below; wavelength 254 nm; sample inject volume 20 μl; operation time 30 min.
The comparison of dissolution profiles is performed by the following procedures: place about 6 mg the sample in a […], add 15 mL ultrapure water, and then seal the vial. A suspension is obtained from sonication with a working power of 40 Khz at room temperature, then take 1 mL of the suspension at 10 min, 30 min, 2 hr and 6 hr, respectively; filter it with 0.45 μm organic filter membrane to, take the filtrate to be measured by HPLC; stir the remaining suspension for 16 hr at room temperature, and then filter it with 0.45 μm organic filter membrane, take the filtrate to be measured by HPLC. FIG. 15 is the comparison plot of dissolution profiles of Crystal Form IV and the Known Crystal Form I in Experimental Example 1 (▴ refers to Crystal Form IV, ▮ refers to the Known Crystal Form I).

For data set [6], the system named is one or more Raf-family kinases. The conditions noted are these: disclosed in WO2009/137391 and CN200980126781.6; cited from earlier work.
A short description of data set [7]: Decomposition temperature by TGA. The class given is physicochemical. Particulars: methanesulfonate. The procedure: The thermogravimetric analysis (TGA) data are collected by TA Instruments Q500 TGA; the instrument control software is Thermal Advantage and the analysis software is Universal Analysis. Generally, take 5˜15 mg sample and place it in a platinum pan, adopt the segmental high-resolution testing mode, and under the protection of 50 mL/min dry N2, heat the sample from room temperature to 350° C. at the heating rate of 10° C./min, the weight changes of the sample during the course are recorded by TA software simultaneously.
Compare decomposition temperatures obtained by TGA tests.

[8] abbreviates: stored for 1 month at room temperature - 97% RH.
[9] abbreviates: stored for 1 month at room temperature.
[10] abbreviates: stirred 15 min at room temperature.
Setting [11] is: 6 hours + 16 hours stirring at room temperature, methanesulfonate.
[12] abbreviates: sonication, room temperature, 10 minutes, methanesulfonate.
The mark [13] stands for this setting: sonication, room temperature, 30 minutes, methanesulfonate.
Setting [14] is: sonication, room temperature, 2 hours, methanesulfonate.
Where [15] appears, read: sonication, room temperature, 6 hours, methanesulfonate.

As to `CC(C)(C)c1nc(-c2cccc(NS(=O)(=O)c3c(F)cccc3F)c2F)c(-c2ccnc(N)n2)s1` [Dabrafenib], in the data set on BRAFV600E-mutan melanoma, the Safety profile entry was “acceptable safety profile” and the Therapeutic activity entry was “has therapeutic activities”.

Turning to `CC(C)(C)c1nc(-c2cccc(NS(=O)(=O)c3c(F)cccc3F)c2F)c(-c2ccnc(N)n2)s1` [Known Crystal Form I, N-[3-[5-(2-amino-4-pyrimidinyl)-2-(tert-butyl)-thiazol-4-yl]-2-fluorophenyl]-2,6-difluorobenzene sulfonamide methanesulfonate, reference compound], the “Storage stability (crystal form)” value in data set [1] (setting [8]) was “remained unchanged and 97% RH, respectively, the crystal forms remained unchanged”; in data set [1] (setting [9]), “remained unchanged and 97% RH, respectively, the crystal forms remained unchanged”. Besides, the “Form stability under humidity” value in data set [2] (25° C. and 20-80% RH, methanesulfonate) was “stable at 25 °C and 20-”. Besides, the Hygroscopicity result in data set [2] (DVS) is “Non-hygroscopic; the form is”. In data set [3], the “Stability in the wet granulation process” value is on record as “unstable”. The “Form of API in wet granule sample (XRPD)” value in data set [3] is recorded as “partially or totally converted to Dabrafenib free base hydrate”. Also, the “Stirring test in water: form after stirring” value in data set [4] (setting [10]) is “consistent with the above-mentioned Dabrafenib free base hydrate; also recorded: converted to its free base; also recorded: converts to its free base monohydrate; also recorded: min, it converted to the free”. In data set [4], the “Stability in water or aqueous system(s)” value was “readily converts to free base”. Besides, the Dissolution in data set [5] (setting [11]) came to 7.48e-05 mg/mL; in data set [5] (setting [12]), 0.00012 mg/mL; in data set [5] (setting [13]), 7.23e-05 mg/mL; in data set [5] (setting [14]), 9.28e-05 mg/mL; in data set [5] (setting [15]), 8.88e-05 mg/mL.

Turning to `CC(C)(C)c1nc(-c2cccc(NS(=O)(=O)c3c(F)cccc3F)c2F)c(-c2ccnc(N)n2)s1` [Dabrafenib methanesulfonate, N-[3-[5-(2-amino-4-pyrimidinyl)-2-(tert-butyl)-thiazol-4-yl]-2-fluorophenyl]-2,6-difluorobenzene sulfonamide methanesulfonate], the “Inhibitory effects on Raf-family kinases” value in data set [6] is “exhibited inhibitory effects”.

`CC(C)(C)c1nc(-c2cccc(NS(=O)(=O)c3c(F)cccc3F)c2F)c(-c2ccnc(N)n2)s1` [Crystal Form II, N-[3-[5-(2-amino-4-pyrimidinyl)-2-(tert-butyl)-thiazol-4-yl]-2-fluorophenyl]-2,6-difluorobenzene sulfonamide methanesulfonate] registered a Decomposition temperature in data set [7] of 287 °C.

Take `CC(C)(C)c1nc(-c2cccc(NS(=O)(=O)c3c(F)cccc3F)c2F)c(-c2ccnc(N)n2)s1` [Crystal Form IV, N-[3-[5-(2-amino-4-pyrimidinyl)-2-(tert-butyl)-thiazol-4-yl]-2-fluorophenyl]-2,6-difluorobenzene sulfonamide methanesulfonate]: the “Storage stability (crystal form)” value in data set [1] (setting [8]) is “remained unchanged and stable and 97% RH, respectively, the crystal forms remained unchanged”; in data set [1] (setting [9]), “remained unchanged and stable and 97% RH, respectively, the crystal forms remained unchanged”. In data set [2] (between 20% RH-80% RH), the “Weight change (dynamic vapor sorption)” value was 2.0%. In data set [3], the “Stability in the wet granulation process” value is recorded as “stable”. The “Form of API in wet granule sample (XRPD)” value in data set [3] is on record as “remained as Crystal Form IV”. For the same compound, the “Stirring test in water: form after stirring” value in data set [4] (setting [10]) was “still remained as methanesulfonate; also recorded: still remains its Crystal Form IV of methanesulfonate; also recorded: remained as methanesulfonate and after”; in data set [4] (stirred overnight at room temperature) it was “converted to its free base; also recorded: converts to its free base monohydrate; also recorded: free base (FIG. 14)”. Further, the “Stability in water or aqueous system(s)” value in data set [4] was “better stability in water or aqueous system(s)”. In data set [5] (0~22 h, any test point, methanesulfonate), the “Dissolution rate / dissolution quantity compared with the Known Crystal Form I” value is “higher than that of the Known Crystal Form I at any test point; also recorded: larger than that of the Known Crystal Form I at any test point”. Moreover, the “Time to the end point in water during dissolution” value in data set [5] (compared with the Known Crystal Form I) was “Form IV is shorter than that of the Known Crystal Form I”. Moreover, the Dissolution in data set [5] (setting [11]) came to 0.000178 mg/mL; in data set [5] (setting [12]), 0.000532 mg/mL; in data set [5] (setting [13]) it was 0.000303 mg/mL; in data set [5] (setting [14]), 0.000376 mg/mL; in data set [5] (setting [15]), 0.000488 mg/mL.
